Experiments:
[1] = target: HIV-1 PR (Human immunodeficiency virus type 1 group M subtype B, UniProt P04585); test: HIV-protease inhibitory activity assay (FRET peptide substrate); format: biochemical; details: Test Example 1
How it was run: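 HIV-1 PR (0.83 ng) preincubated with compounds 20 min at room temperature in 0.1 mol/L NaAc, 0.5 mol/L NaCl, 1 mmol/L EDTA, 1 mmol/L DTT, 0.05% Tween 20, pH 4.8. Cleavage of HiLyte Fluor 488/QXL 520 FRET peptide (2 μmol/L) read after 60 minutes at 485/535 nm; IC50 from four-parameter logistic fit.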

[2] = Protein binding test (equilibrium dialysis, unbound ratio fu in serum); format: in vitro ADME; details: rat serum, equilibrium dialysis 24 hours, 37° C., 2 μg/mL
How it was run: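 Compound at 2 μg/mL in serum was dialysed against PBS for 24 hours at 37° C. Both sides were quantified by LC/MS/MS, and fu was taken as the PBS concentration divided by the serum concentration.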

[3] = Evaluation of total body clearance (CLtot), intravenous administration; format: in vivo, Sprague-Dawley (SD); details: rat (SD), intravenous administration 0.5-10 mg/kg; CLtot = dose/AUC
How it was run: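 Plasma levels quantified by LC/MS/MS after intravenous tail-vein dosing (0.5-10 mg/kg, compound-dependent; n=2-3). AUC from pharmacokinetic analysis; total clearance calculated as dose/AUC.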

Row | Structure (SMILES) | IC50 [1] [nM] | rat_fu [2] [%] | rat_CLt [3] [mL/min/kg]
1 | COc1ccc(S(=O)(=O)N(CC(C)C)CC(O)C(Cc2ccc(NCc3ccc(F)cc3-c3sc4c(c3C(=O)O)CC(C)(C)CC4)cc2)NC(=O)OC2COC3(C)OCCC23)cc1 (stereo not drawn) [Compound I-275] | 2.11 | <0.1 | 2.12
2 | COc1ccc(S(=O)(=O)N(CC(C)C)CC(O)C(Cc2ccc(NCc3cccc(F)c3-c3sc4c(c3C(=O)O)CC(C)(C)CC4)cc2)NC(=O)OC2COC3(C)OCCC23)cc1 (stereo not drawn) [Compound I-277] | 1.94 | <0.1 | 0.512
3 | COc1ccc(S(=O)(=O)N(CC(C)C)CC(O)C(Cc2ccc(NCc3cccc(-c4sc5c(c4C(=O)O)CC(C)(C)CC5)c3C)cc2)NC(=O)OC2COC3(C)OCCC23)cc1 (stereo not drawn) [Compound I-292] | 2.68 | <0.1 | 0.166
4 | COc1ccc(S(=O)(=O)N(CC(C)C)CC(O)C(Cc2ccc(NCc3ncc(-c4sc5c(c4C(=O)O)CC(C)(C)CC5)s3)cc2)NC(=O)OC2COC3(C)OCCC23)cc1 (stereo not drawn) [Compound I-297] | 1.82 | <0.1 | 3.54
5 | COc1ccc(S(=O)(=O)N(CC(C)C)CC(O)C(Cc2ccc(NCC3(O)CCCC3c3sc4c(c3C(=O)O)CC(C)(C)CC4)cc2)NC(=O)OC2COC3(C)OCCC23)cc1 (stereo not drawn) [Compound I-334] | 1.91 | <0.1 | 3.87
6 | CCCCCN(Cc1ccccc1-c1sc2c(c1C(=O)O)CC(C)(C)CC2)c1ccc(CC(NC(=O)OC2COC3(C)OCCC23)C(O)CN(CC(C)C)S(=O)(=O)c2ccc(OC)cc2)cc1 (stereo not drawn) [Compound I-338] | 4.7 | <0.1 | 5.7
7 | COc1ccc(S(=O)(=O)N(CC(C)C)CC(O)C(Cc2ccc(OC3CCC(c4ccc(C(F)(F)F)cc4-c4sc5c(c4C(=O)O)CC(C)(C)CC5)C3)cc2)NC(=O)OC2COC3(C)OCCC23)cc1 (stereo not drawn) [Compound I-343] | 15.9 | <0.1 | 3.31
8 | COc1ccc(S(=O)(=O)N(CC(C)C)CC(O)C(Cc2ccc(N(C)CC3=C(c4sc5c(c4C(=O)O)CC(C)(C)CC5)CCC3)cc2)NC(=O)OC2COC3(C)OCCC23)cc1 (stereo not drawn) [Compound I-347] | 4.4 | <0.1 | 5.18
9 | COc1ccc(S(=O)(=O)N(CC(C)C)CC(O)C(Cc2ccc(N(C)Cc3ccccc3-n3nc4c(c3C(=O)O)CC(C)(C)CC4)cc2)NC(=O)OC2COC3(C)OCCC23)cc1 (stereo not drawn) [Compound I-349] | 2.33 | <0.1 | 0.71
10 | COc1ccc(S(=O)(=O)N(CC(C)C)CC(O)C(Cc2ccc(N3CCC(Oc4ccc(-c5sc6c(c5C(=O)O)CC(C)(C)CC6)cc4)C3)cc2)NC(=O)OC2COC3(C)OCCC23)cc1 (stereo not drawn) [Compound I-351] | 5.09 | <0.1 | 3.08
11 | CCN(Cc1ccccc1-c1sc2c(c1C(=O)O)CC(C)(C)CC2)c1ccc(CC(NC(=O)OC2COC3(C)OCCC23)C(O)CN(CC(C)C)S(=O)(=O)c2ccc(OC)cc2)cc1 (stereo not drawn) [Compound I-352] | 4.22 | <0.1 | 3.26
12 | COc1ccc(S(=O)(=O)N(CC(C)C)CC(O)C(Cc2ccc(OC3CN(c4cc(C(F)(F)F)ccc4-c4sc5c(c4C(=O)O)CC(C)(C)CC5)C3)cc2)NC(=O)OC2COC3(C)OCCC23)cc1 (stereo not drawn) [Compound I-354] | 44.2 | <0.1 | 0.0682
13 | COc1ccc(S(=O)(=O)N(CC(C)C)CC(O)C(Cc2ccc(N3CC(Oc4ccccc4-c4sc5c(c4C(=O)O)CC(C)(C)CC5)C3)cc2)NC(=O)OC2COC3(C)OCCC23)cc1 (stereo not drawn) [Compound I-357] | 4.41 | <0.1 | 1.55
14 | COc1ccc(S(=O)(=O)N(CC(C)C)CC(O)C(Cc2ccc(NCC3=C(c4sc5c(c4C(=O)O)CC(C)(C)CC5)CCOC3)cc2)NC(=O)OC2COC3(C)OCCC23)cc1 (stereo not drawn) [Compound I-362] | 3.07 | <0.1 | 4.62
15 | COc1ccc(S(=O)(=O)N(CC(C)C)CC(O)C(Cc2ccc(N(C)CC3=C(c4sc5c(c4C(=O)O)CC(C)(C)CC5)CCOC3)cc2)NC(=O)OC2COC3(C)OCCC23)cc1 (stereo not drawn) [Compound I-363] | 3.36 | <0.1 | 3.39
16 | COc1ccc(S(=O)(=O)N(CC2CCCC2)CC(O)C(Cc2ccc(OCc3cc(C(F)(F)F)ccc3-n3nc4c(c3C(=O)O)CC(C)(C)CC4)cc2)NC(=O)OC2COC3(C)OCCC23)cc1 (stereo not drawn) [Compound I-365] | 3.2 | <0.1 | 0.119
17 | COc1ccc(S(=O)(=O)N(CC(C)C)CC(O)C(Cc2ccc(N(C)CC3CCCCC3c3sc4c(c3C(=O)O)CC(C)(C)CC4)cc2)NC(=O)OC2COC3(C)OCCC23)cc1 (stereo not drawn) [Compound I-374] | 4.35 | <0.1 | 3.94
18 | COc1ccc(S(=O)(=O)N(CC(C)C)CC(O)C(Cc2ccc(CN(C)c3ccc(-c4sc5c(c4C(=O)O)CC(C)(C)CC5)c(C)c3)cc2)NC(=O)OC2COC3(C)OCCC23)cc1 (stereo not drawn) [Compound I-376] | 9.86 | <0.1 | 0.485
19 | COc1ccc(S(=O)(=O)N(CC(C)C)CC(O)C(Cc2ccc(NCc3cc(C(F)(F)F)ccc3-n3nc4c(c3C(=O)O)CC(C)(C)CC4)cc2)NC(=O)OC2COC3(C)OCCC23)cc1 (stereo not drawn) [Compound I-378] | 4.1 | <0.1 | 0.173
20 | COc1ccc(S(=O)(=O)N(CC(C)C)CC(O)C(Cc2ccc(N(C)Cc3cc(C(F)(F)F)ccc3-n3nc4c(c3C(=O)O)CC(C)(C)CC4)cc2)NC(=O)OC2COC3(C)OCCC23)cc1 (stereo not drawn) [Compound I-379] | 4.42 | <0.1 | 0.173
21 | COc1ccc(S(=O)(=O)N(CC(C)C)CC(O)C(Cc2ccc(SCc3ccccc3-c3sc4c(c3C(=O)O)CC(C)(C)CC4)cc2)NC(=O)OC2COC3(C)OCCC23)cc1 (stereo not drawn) [Compound I-380] | 5.51 | <0.1 | 0.702
22 | COc1ccc(S(=O)(=O)N(CC(C)C)CC(O)C(Cc2ccc(NCc3cnc4ccccc4c3-c3sc4c(c3C(=O)O)CC(C)(C)CC4)cc2)NC(=O)OC2COC3(C)OCCC23)cc1 (stereo not drawn) [Compound I-384] | 6.62 | <0.1 | 0.253
23 | COc1ccc(S(=O)(=O)N(CC(C)C)CC(O)C(Cc2ccc(CN3CCc4c(-c5sc6c(c5C(=O)O)CC(C)(C)CC6)cccc43)cc2)NC(=O)OC2COC3(C)OCCC23)cc1 (stereo not drawn) [Compound I-386] | 5.89 | <0.1 | 4.96
24 | COc1ccc(S(=O)(=O)N(CC(C)C)CC(O)C(Cc2ccc(CN3CCc4ccc(-c5sc6c(c5C(=O)O)CC(C)(C)CC6)cc4C3)cc2)NC(=O)OC2COC3(C)OCCC23)cc1 (stereo not drawn) [Compound I-389] | 1.79 | <0.1 | 14
25 | COc1ccc(S(=O)(=O)N(CC(C)C)CC(O)C(Cc2ccc(N(C)C3CN(c4ccc(-c5sc6c(c5C(=O)O)CC(C)(C)CC6)cc4)C3)cc2)NC(=O)OC2COC3(C)OCCC23)cc1 (stereo not drawn) [Compound I-391] | 3.94 | <0.1 | 10.3

Reference: patent publication US20170253607A1, “LONG-ACTING HIV PROTEASE INHIBITOR” (Shionogi & Co., Ltd., priority 2014, published 2017)
